Data taken from ChEMBL document CHEMBL1201862, “PubChem BioAssay data set” (2004).
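Compound exposure: 48 hours, 5 concentrations, 96-well plates. Here, GI50 denotes the concentration required for 50% inhibition of growth.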 Active and inactive are the calls of the source. No stated cut-off is given here; in the data, active = GI50 up to about 1.1 µM and inactive = higher.

Columns and labels:
Assay in all cases: inhibition of tumour cell growth, NCI panel, 48 h
A549 = test system: A549
ACHN = test system: ACHN
DU-145 = test system: DU-145
HCT-116 = test system: HCT-116
HCT-15 = test system: HCT-15
HOP-62 = test system: HOP-62
HT-29 = test system: HT-29
K562 = test system: K562
MDA-MB-231 = test system: MDA-MB-231
MOLT-4 = test system: MOLT-4
Malme-3M = test system: Malme-3M
NCI-H226 = test system: NCI-H226
NCI-H522 = test system: NCI-H522
NCI/ADR-RES = test system: NCI/ADR-RES
RPMI-8226 = test system: RPMI-8226
RXF 393 = test system: RXF 393
SF-268 = test system: SF-268
SF-295 = test system: SF-295
SN12C = test system: SN12C
T47D = test system: T47D

Row | SMILES | GI50 (A549) | GI50 (ACHN) | GI50 (DU-145) | GI50 (HCT-116) | GI50 (HCT-15) | GI50 (HOP-62) | GI50 (HT-29) | GI50 (K562) | GI50 (MDA-MB-231) | GI50 (MOLT-4) | GI50 (Malme-3M) | GI50 (NCI-H226) | GI50 (NCI-H522) | GI50 (NCI/ADR-RES) | GI50 (RPMI-8226) | GI50 (RXF 393) | GI50 (SF-268) | GI50 (SF-295) | GI50 (SN12C) | GI50 (T47D)
1 | COc1cc(C2c3cc4c(cc3OC(NN)C2C)OCO4)cc(OC)c1OC (centres undefined) | 1.58 µM (inactive) | 1.78 µM (inactive) | 1.94 µM (inactive) | 0.473 µM (active) | 0.406 µM | 0.462 µM (active) | 0.36 µM (active) | 0.333 µM (active) | 4.09 µM (inactive) | 0.406 µM (active) | 0.34 µM (active) | 0.979 µM (active) | 0.869 µM (active) | 1.06 µM (active) | 0.289 µM (active) | 0.593 µM (active) | 2.5 µM (inactive) | 0.406 µM (active) | 0.757 µM (active) | 87.3 µM (inactive)
2 | O=C(N/N=C/c1c(-c2ccccc2)no[n+]1[O-])N1CCOCC1 | > 100 µM (inactive) | > 100 µM (inactive) | > 100 µM (inactive) | > 100 µM (inactive) | > 100 µM | > 100 µM (inactive) | > 100 µM (inactive) | > 100 µM (inactive) | > 100 µM (inactive) | 26.3 µM (inactive) | > 100 µM (inactive) | > 100 µM (inactive) | > 100 µM (inactive) | > 100 µM (inactive) | > 100 µM (inactive) | > 100 µM (inactive) | > 100 µM (inactive) | > 100 µM (inactive) | > 100 µM (inactive) | > 100 µM (inactive)
3 | Clc1ncnc2c1nc(C#Cc1ccccc1)n2C1CCCCO1 (centres undefined) | 1.99 µM (inactive) | 1.69 µM (inactive) | 1.47 µM (inactive) | 1.82 µM (inactive) | 1.14 µM | 2.38 µM (inactive) | 1.91 µM (inactive) | 1.38 µM (inactive) | 3.95 µM (inactive) | 2.02 µM (inactive) | 1.95 µM (inactive) | 2.49 µM (inactive) | 1.81 µM (inactive) | 2.75 µM (inactive) | – | 1.51 µM (inactive) | 2.32 µM (inactive) | 4.47 µM (inactive) | 1.78 µM (inactive) | 1.7 µM (inactive)
4 | COC1CC(OC(=O)c2ccccc2)C(OC(=O)c2ccccc2)C(C)O1 (centres undefined) | > 100 µM (inactive) | > 100 µM (inactive) | > 100 µM (inactive) | > 100 µM (inactive) | > 100 µM | > 100 µM (inactive) | – | > 100 µM (inactive) | > 100 µM (inactive) | > 100 µM (inactive) | > 100 µM (inactive) | 85.1 µM (inactive) | > 100 µM (inactive) | > 100 µM (inactive) | > 100 µM (inactive) | > 100 µM (inactive) | > 100 µM (inactive) | > 100 µM (inactive) | > 100 µM (inactive) | > 100 µM (inactive)
5 | CC12CCc3ccccc3C1=Nc1ccccc12 (centres undefined) | 73.5 µM (inactive) | 64.7 µM (inactive) | > 100 µM (inactive) | 32.7 µM (inactive) | 38.1 µM | 86.1 µM (inactive) | 29.9 µM (inactive) | 31 µM (inactive) | 24.2 µM (inactive) | 30.4 µM (inactive) | 28.1 µM (inactive) | 21.8 µM (inactive) | 23.7 µM (inactive) | 22.4 µM (inactive) | – | 74.3 µM (inactive) | 98.2 µM (inactive) | 44.4 µM (inactive) | 0.164 µM (active) | 21.1 µM (inactive)
6 | N#Cc1ccc(Oc2nc3ccccc3nc2C(=O)O)cc1 | > 100 µM (inactive) | > 100 µM (inactive) | > 100 µM (inactive) | > 100 µM (inactive) | > 100 µM | > 100 µM (inactive) | > 100 µM (inactive) | > 100 µM (inactive) | > 100 µM (inactive) | > 100 µM (inactive) | > 100 µM (inactive) | > 100 µM (inactive) | > 100 µM (inactive) | > 100 µM (inactive) | > 100 µM (inactive) | > 100 µM (inactive) | > 100 µM (inactive) | > 100 µM (inactive) | – | > 100 µM (inactive)
7 | O=C1C=C(Nc2cccnc2)c2ccccc2/C1=N/O | 39.6 µM (inactive) | 23.2 µM (inactive) | 50.5 µM (inactive) | 26.6 µM (inactive) | 15.2 µM | 23 µM (inactive) | 11.1 µM (inactive) | 24.7 µM (inactive) | 16.7 µM (inactive) | 15.7 µM (inactive) | – | 58.7 µM (inactive) | 9.89 µM (inactive) | 21.5 µM (inactive) | 38 µM (inactive) | 33.7 µM (inactive) | 9.77 µM (inactive) | 39.2 µM (inactive) | 34.4 µM (inactive) | 30.1 µM (inactive)
8 | C=CCn1c(=O)c2ccccc2[n+]2c(-c3cccc([N+](=O)[O-])c3)csc12 | 42.2 µM (inactive) | > 100 µM (inactive) | 50.4 µM (inactive) | 38.9 µM (inactive) | – | 76.7 µM (inactive) | 30.8 µM (inactive) | 28.4 µM (inactive) | 87.3 µM (inactive) | 24.7 µM (inactive) | > 100 µM (inactive) | 12.5 µM (inactive) | 36.1 µM (inactive) | 17.1 µM (inactive) | 30.7 µM (inactive) | 37.2 µM (inactive) | 48.9 µM (inactive) | 53.1 µM (inactive) | > 100 µM (inactive) | 19.7 µM (inactive)
9 | O=C(NCCc1n[nH]c2c1C(=O)C=C(Nc1ccccc1)C2=O)OCc1ccccc1 | > 100 µM (inactive) | > 100 µM (inactive) | > 100 µM (inactive) | 97.3 µM (inactive) | > 100 µM | – | > 100 µM (inactive) | – | > 100 µM (inactive) | > 100 µM (inactive) | – | > 100 µM (inactive) | > 100 µM (inactive) | > 100 µM (inactive) | > 100 µM (inactive) | > 100 µM (inactive) | > 100 µM (inactive) | > 100 µM (inactive) | > 100 µM (inactive) | 53.8 µM (inactive)
10 | COC(=O)c1ccccc1C1CN=NC12Cc1c(ccc(C)c1C)C2=O (centres undefined) | > 100 µM (inactive) | > 100 µM (inactive) | > 100 µM (inactive) | > 100 µM (inactive) | > 100 µM | 57.3 µM (inactive) | > 100 µM (inactive) | > 100 µM (inactive) | 81.5 µM (inactive) | > 100 µM (inactive) | > 100 µM (inactive) | > 100 µM (inactive) | > 100 µM (inactive) | > 100 µM (inactive) | – | > 100 µM (inactive) | 39.1 µM (inactive) | > 100 µM (inactive) | > 100 µM (inactive) | > 100 µM (inactive)
11 | CCCCC/N=C/c1c(O)c(O)c(C(C)C)c2cc(C)c(-c3c(C)cc4c(C(C)C)c(O)c(O)c(/C=N/CCCCC)c4c3O)c(O)c12 | 5.58 µM (inactive) | 3.59 µM (inactive) | 19.5 µM (inactive) | 11 µM (inactive) | 5.85 µM | 15.3 µM (inactive) | 2.88 µM (inactive) | 4.25 µM (inactive) | 7.43 µM (inactive) | – | 12.7 µM (inactive) | 23 µM (inactive) | 5.05 µM (inactive) | 27.1 µM (inactive) | 8.26 µM (inactive) | 11.2 µM (inactive) | 6.5 µM (inactive) | – | 7.94 µM (inactive) | 3.98 µM (inactive)
12 | CC(C)C1OC(/C=C/c2ccccc2)OCC1(C)C (centres undefined) | 29.9 µM (inactive) | 32.2 µM (inactive) | 37.2 µM (inactive) | 25.4 µM (inactive) | 24.8 µM | 32.1 µM (inactive) | 27.7 µM (inactive) | 25.4 µM (inactive) | 36.4 µM (inactive) | – | 0.91 µM (active) | 23.5 µM (inactive) | 13.8 µM (inactive) | 41.6 µM (inactive) | 17.8 µM (inactive) | 18.1 µM (inactive) | 33 µM (inactive) | 31 µM (inactive) | 21.6 µM (inactive) | 31.4 µM (inactive)
13 | CC(=O)Nc1ccc(N2C(=O)/C(=C\c3cccc(Oc4ccccc4)c3)SC2c2ccccc2)cc1 (centres undefined) | 27.1 µM (inactive) | 71 µM (inactive) | 27.5 µM (inactive) | 18.1 µM (inactive) | 78.5 µM | 22.6 µM (inactive) | – | 33.1 µM (inactive) | 32.6 µM (inactive) | 27.9 µM (inactive) | 28 µM (inactive) | 22 µM (inactive) | 23.2 µM (inactive) | 29.5 µM (inactive) | 24.7 µM (inactive) | 30.4 µM (inactive) | 50.6 µM (inactive) | 38.5 µM (inactive) | 26.8 µM (inactive) | 54.1 µM (inactive)
14 | CCOC(=O)Cc1nc2nn(Cc3ccccc3)cc2c(=O)[nH]1 | > 100 µM (inactive) | > 100 µM (inactive) | > 100 µM (inactive) | > 100 µM (inactive) | > 100 µM | > 100 µM (inactive) | > 100 µM (inactive) | > 100 µM (inactive) | > 100 µM (inactive) | > 100 µM (inactive) | > 100 µM (inactive) | > 100 µM (inactive) | – | > 100 µM (inactive) | > 100 µM (inactive) | > 100 µM (inactive) | > 100 µM (inactive) | > 100 µM (inactive) | > 100 µM (inactive) | > 100 µM (inactive)
15 | COC(=O)c1ccccc1C1CN=NC12Cc1c(C)ccc(C)c1C2=O (centres undefined) | > 100 µM (inactive) | > 100 µM (inactive) | > 100 µM (inactive) | 82.6 µM (inactive) | > 100 µM | > 100 µM (inactive) | > 100 µM (inactive) | 68.5 µM (inactive) | > 100 µM (inactive) | 88.5 µM (inactive) | 36.6 µM (inactive) | > 100 µM (inactive) | > 100 µM (inactive) | > 100 µM (inactive) | – | > 100 µM (inactive) | > 100 µM (inactive) | > 100 µM (inactive) | > 100 µM (inactive) | > 100 µM (inactive)
